Laboratory results published in patent publication US20110312961A1, “2,5-Disubstituted Morpholine Orexin REceptor Antagonists” (priority 2008, published 2011).
pEC50, pKi: −log10 of the molar value. Read-outs that look alike come from different tables or passages of the source.

What was measured:
[1] = target: T1, human native ganglion-type nicotinic receptors (likely α3β4) (Homo sapiens, UniProt P30926+P32297); test: [3H]epibatidine binding, SH-SY5Y membranes; conditions: read-out: Human ganglionic (SH-SY5Y), Ki
T1 construct: human native ganglion-type nicotinic receptors (likely α3β4); endogenous in cells; host or cells: SH-SY5Y
T1 sequence (P32297 32-505): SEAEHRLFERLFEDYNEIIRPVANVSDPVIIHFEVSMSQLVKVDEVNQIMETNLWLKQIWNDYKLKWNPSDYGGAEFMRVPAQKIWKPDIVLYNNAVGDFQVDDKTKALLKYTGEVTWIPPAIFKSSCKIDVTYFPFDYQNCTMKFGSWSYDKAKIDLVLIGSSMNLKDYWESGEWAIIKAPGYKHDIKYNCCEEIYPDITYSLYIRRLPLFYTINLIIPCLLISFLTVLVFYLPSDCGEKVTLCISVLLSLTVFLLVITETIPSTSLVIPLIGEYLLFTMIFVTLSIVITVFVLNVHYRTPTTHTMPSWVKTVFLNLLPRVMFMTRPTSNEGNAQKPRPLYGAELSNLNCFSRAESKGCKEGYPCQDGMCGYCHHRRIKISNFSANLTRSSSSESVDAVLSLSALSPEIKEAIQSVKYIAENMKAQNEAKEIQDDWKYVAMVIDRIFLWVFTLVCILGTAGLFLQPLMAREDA
T1 sequence (P30926 22-498): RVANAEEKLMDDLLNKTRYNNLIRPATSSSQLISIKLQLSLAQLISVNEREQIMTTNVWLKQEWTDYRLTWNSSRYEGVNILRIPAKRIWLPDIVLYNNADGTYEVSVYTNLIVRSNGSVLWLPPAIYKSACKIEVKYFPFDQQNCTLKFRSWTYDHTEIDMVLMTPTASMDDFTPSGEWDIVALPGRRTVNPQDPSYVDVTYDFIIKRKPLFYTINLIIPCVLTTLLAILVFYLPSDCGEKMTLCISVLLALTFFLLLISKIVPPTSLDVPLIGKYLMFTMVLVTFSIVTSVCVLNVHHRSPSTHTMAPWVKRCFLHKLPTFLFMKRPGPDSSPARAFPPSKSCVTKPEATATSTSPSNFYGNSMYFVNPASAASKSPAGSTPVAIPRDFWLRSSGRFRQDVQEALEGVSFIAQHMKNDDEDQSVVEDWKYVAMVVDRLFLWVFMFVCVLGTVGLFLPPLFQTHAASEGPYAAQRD

[2] = target: α7 nicotinic ACh receptors (Homo sapiens, UniProt P36544); test: Electrophysiology at α7, dose-response and co-application with ACh (Dynaflow chip); format: cell-based
Sequence of α7 nicotinic ACh receptors (P36544 23-502): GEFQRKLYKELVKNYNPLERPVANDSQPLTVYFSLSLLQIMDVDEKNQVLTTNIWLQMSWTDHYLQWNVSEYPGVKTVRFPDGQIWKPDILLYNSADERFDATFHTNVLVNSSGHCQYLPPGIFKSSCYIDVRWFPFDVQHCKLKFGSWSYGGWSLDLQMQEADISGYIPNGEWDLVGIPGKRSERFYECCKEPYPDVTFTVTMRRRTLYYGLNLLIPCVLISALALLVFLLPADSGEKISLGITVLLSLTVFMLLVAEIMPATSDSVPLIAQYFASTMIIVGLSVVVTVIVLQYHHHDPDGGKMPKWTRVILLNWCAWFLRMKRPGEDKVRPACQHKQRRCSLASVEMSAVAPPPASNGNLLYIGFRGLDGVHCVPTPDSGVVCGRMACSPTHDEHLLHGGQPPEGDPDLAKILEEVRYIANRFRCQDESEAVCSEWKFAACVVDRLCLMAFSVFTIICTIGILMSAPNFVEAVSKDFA
Experimental: Hump currents are defined as the tail current observed during co-application with endogenous ACh following agonist removal.
The channels were prepared as follows: Control solution (channel #2), application ligand itself (channel #3), application of acetylcholine itself (channel #1), and application of mixture of acetylcholine and ligand (channel #4).
Curve 1, FIG. 7B: The bar above the curve indicates time of ACh application. The curve represents current induced by a one second application of 70 μM ACh. The curve illustrates the result from moving the cell from channel #2 to channel #1 for a 1 second application of ACh and back to channel 2 (washout).
Curve 4, FIG. 7B: Curve 4 represents a repetition of Curve 1 at the end of measurements after application of the ligand and ACh/ligand mixture (recovery).
Curve 2, FIG. 7B: The down/up arrows indicates time of application.

[3] = tested on: db/db mouse; test: Murine model of type 2 diabetes mellitus (db/db); format: in vivo
Excerpt: The db/db mouse, a well established model of type 2 diabetes mellitus, is a leptin-deficient mutant that expresses an obese phenotype and also commonly expresses metabolic symptoms including hyperglycemia, hyperlipidemia and hyperinsulinemia (Halaas et al., 1995 and Lee et al., 1996). This experimental animal model of diabetes was employed in a study designed to determine the effects of (2S,3R)—N-2-((3-pyridinyl)methyl)-1-azabicyclo[2.2.2]oct-3-yl)-3,5-difluorobenzamide on body mass and several additional metabolic parameters.
In this study, (2S,3R)—N-2-((3-pyridinyl)methyl)-1-azabicyclo[2.2.2]oct-3-yl)-3,5-difluorobenzamide was repeatedly administered orally (via gavage) at 1.0 mg/kg once daily starting from the age of approximately 3 weeks and continuing throughout the 7-week study. Nondiabetic heterozygote littermate mice (db/+; designated “Db”) were used as controls. Body weight and food intake were determined twice weekly. The α7 antagonist methyllycaconitine (MLA) was also given concurrently via gavage at 3 mg/kg daily to selected cohorts of db/db (designated “db”) or db/+mice. At the end of the 7-week dosing regimen, total growth rates (overall body weight gain) and average daily food intake were calculated. In addition, glucose levels were assessed in mice fasted overnight. Furthermore, blood sample analytes from mice fasted overnight were collected for measurements of tumor necrosis factor-a (TNF-α), triglycerides and glycosylated hemoglobin (HbA1c). All data are expressed as mean±SEM. For each parameter investigated, differences among all groups were compared by one-way ANOVA with post-hoc Neuman-Keuls multiple comparison test.

[4] = tested on: CD-1 mice; test: Formalin test; format: in vivo, mouse
Experimental: One of the most clinically predictive screening models of acute pain is the formalin test in mice (LeBars et al., 2001). In this paradigm, originally described by Dubuisson and Dennis (1977), a diluted solution of formalin is injected into the plantar surface of a subject's (rat or mouse) rear paw and nociceptive behavior is measured; for instance, licking and biting of the injected paw. Two phases of the response are observed. First an early phase, starting immediately after injection and lasting 5-10 minutes, followed by a late phase that can last from 15-60 minutes after injection. Nociceptive response is attributed to direct chemical stimulation in the early phase and inflammation/persistent pain in the later phase (Dubuisson and Dennis, 1977). The response in the late phase also depends on changes in processing of information in the spinal cord due to the afferent barrage during the early phase (Coderre et al., 1990). An advantage of the test is that two different types of stimuli are employed in the same assay to study the possibility of varying analgesic effects of a drug in the two phases of the test (Tjølsen and Hole, 1997).
Subjects (adult male CD-1 mice (Charles River, Raleigh, N.C.) weighing approximately 20-25 grams) were removed from their home cage and weighed, then placed in a clear Plexiglas™ observation box for an acclimation period of 20-30 minutes. Mice were then removed from the observation chambers and (2S,3R)—N-2-((3-pyridinyl)methyl)-1-azabicyclo[2.2.2]oct-3-yl)-3,5-difluorobenzamide (as the hydrochloride salt in 0.9% saline) (1, 3 or 10 mg/kg s.c. (calculated with respect to the free base)), morphine (5 mg/kg; s.c.) or 0.9% saline vehicle was administered subcutaneously in a volume of 1 mL/kg. Mice were then returned to the chamber for the predetermined pretreatment time of 30 minutes for (2S,3R)—N-2-((3-pyridinyl)methyl)-1-azabicyclo[2.2.2]oct-3-yl)-3,5-difluorobenzamide and morphine.
After the test compound pretreatment time, the animals were injected with formalin solution (2.5% derived as a 1:4 dilution of 10% phosphate buffered formalin solution (Sigma):distilled water). The subject's assigned paw was gasped gently and formalin solution was injected into the paw intra-dermally in the middle on the dorsal side. Once injected, the subject was immediately returned to its observation chamber and a timer was started to mark the beginning of Phase I. Each subject was videotaped for the entire 40-minute session. […] The time spent licking during that 1 min interval was recorded, and the presence or absence of paw favoring was noted.
For data analyses, phase I of the test was defined as 0 to 5 minutes after formalin injection, and phase II was defined as 20 to 40 minutes after formalin injection. The time spent licking during the 1 minute intervals during those time frames was recorded and graphed as mean±S.E.M. For comparisons across treatment groups, 1-way analyses of variance (ANOVAs) were performed for each phase of the session with treatment as the […] variable. Post-hoc analyses were performed when appropriate to determine specific group differences.

O=C(N[C@@H]1C2CCN(CC2)[C@H]1Cc1cccnc1)c1cc(F)cc(F)c1 [Compound A]
pKi [1]: 4.32
type of activity at the α7 NNR [2]: partial agonists
current on application of the ligand following application of ACh ([2]; 200 nM ligand, Curve 3 FIG. 7B): profound “hump” current
current on application of the ligand alone ([2]; 200 nM, 5 second application, Curve 2 FIG. 7B): do not produce robust macro currents
effect on ACh-induced current ([2]; co-application of compound with ACh, FIG. 6): enhances ACh-induced current
pEC50 ([2]; co-application with ACh, 100-500 nM range, n=4, FIG. 7C, read-out: EC50 of hump current): 6.92
concentration at Emax of hump current ([2]; co-application with ACh, FIG. 7C): approximately 500 nM
Emax ([2]; dose-response, FIG. 5): 54.4%
pEC50 ([2]; dose-response, FIG. 5, read-out: EC50 at α7 nicotinic receptors): 5.80
food consumption ([3]; lean (db/+) mice, 1.0 mg/kg oral daily, FIG. 16): unaffected
total body weight gain ([3]; obese db/db mice, 1.0 mg/kg oral daily, 7 weeks, FIG. 15): significantly lower
average food consumption ([3]; obese db/db mice, 1.0 mg/kg oral daily, 7 weeks, vs obese controls, FIG. 16): significantly lower
all parameters measured ([3]; obese db/db mice, 1.0 mg/kg oral once daily, 7 weeks, vs vehicle-treated obese db/db): significant decrease in all parameters measured
fasting plasma glucose levels ([3]; obese mice, 1.0 mg/kg oral daily, 7 weeks, FIG. 17): significantly inhibited
glycosylated HbA1c levels ([3]; obese mice, 1.0 mg/kg oral daily, 7 weeks, FIG. 18): significantly inhibited
pro-inflammatory cytokine TNF alpha ([3]; obese mice, 1.0 mg/kg oral daily, 7 weeks, FIG. 19): significantly reduced
triglyceride levels ([3]; obese mice, 1.0 mg/kg oral daily, 7 weeks, vs vehicle-treated controls, FIG. 20): significantly lower
reduction of time spent licking the paw, phase II ([4]; 10 mg/kg s.c., 20 to 40 minutes after formalin, P<0.05): significant in reducing the time spent licking the paw
reduction of time spent licking, phase I ([4]; 1, 3 or 10 mg/kg s.c., hydrochloride salt, 0 to 5 minutes after formalin): no statistically significant dose
reduction of time spent licking the affected paw, phase I or phase II ([4]; subsequent analysis of the videotapes, scored across the entire time period): failed to achieve statistical significance
